Measured values taken from US6534524B1, “Indazole compounds and pharmaceutical compositions for inhibiting protein kinases, and methods for their use” (Agouron Pharmaceuticals, Inc., priority 1999, dated 2003).
Like-named read-outs stand apart in the source and are kept apart here.

Legend:
[1] = biological target: phosphorylated VEGF-R2Δ50 (FLVK-P) (Homo sapiens, UniProt P35968, DEL940-989/E990V); experiment: VEGF-R2 coupled spectrophotometric assay, phosphorylated VEGF-R2Δ50 (FLVK-P)
human CHK1 (FL-CHK1) = biological target: T1, human CHK1 (FL-CHK1) (Homo sapiens, UniProt O14757); experiment: CHK1 assay (coupled spectrophotometric, Syntide-2); assay type: biochemical; settings: Table 1; read-out: CHK-1 Ki
T1 construct: C-terminally His-tagged full-length human CHK1 (FL-CHK1); made in house; host or cells: baculovirus/insect cell system
T1 sequence (O14757 1-476): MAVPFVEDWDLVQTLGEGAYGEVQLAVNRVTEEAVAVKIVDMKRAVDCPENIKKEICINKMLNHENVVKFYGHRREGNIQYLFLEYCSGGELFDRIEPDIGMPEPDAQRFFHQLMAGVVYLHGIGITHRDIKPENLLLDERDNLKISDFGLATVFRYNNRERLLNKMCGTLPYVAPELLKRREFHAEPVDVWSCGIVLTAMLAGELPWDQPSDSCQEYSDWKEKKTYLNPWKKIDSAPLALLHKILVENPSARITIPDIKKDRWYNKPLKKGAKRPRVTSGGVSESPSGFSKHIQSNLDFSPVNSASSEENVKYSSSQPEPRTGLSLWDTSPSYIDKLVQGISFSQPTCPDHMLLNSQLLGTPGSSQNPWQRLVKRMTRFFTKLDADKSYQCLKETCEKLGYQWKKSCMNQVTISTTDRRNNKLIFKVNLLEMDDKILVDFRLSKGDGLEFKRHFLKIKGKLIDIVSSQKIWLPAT
Text: CHK1 Construct for Assay: C-terminally His-tagged full-length human CHK1 (FL-CHK1) was expressed using the baculovirus/insect cell system. […] The protein was purified by conventional chromatographic techniques.
The production of ADP from ATP that accompanies phosphoryl transfer to the synthetic substrate peptide Syntide-2 ([…]) was coupled to oxidation of NADH using phosphoenolpyruvate (PEP) through the actions of pyruvate kinase (PK) and lactic dehydrogenase (LDH). The oxidation of NADH was monitored by following the decrease of absorbance at 340 nm (ε340=6.22 cm^−1 mM^−1) using a HP8452 spectrophotometer. […] Assays were initiated with 10 nM of FL-CHK1. Ki values were determined by measuring initial enzyme activity in the presence of varying concentrations of test compounds. The data were analyzed using Enzyme Kinetic and Kaleidagraph software.

[2] = biological target: unphosphorylated VEGF-R2Δ50 (FLVK) (Homo sapiens, UniProt P35968, DEL940-989/E990V); experiment: VEGF-R2 coupled spectrophotometric assay, unphosphorylated VEGF-R2Δ50 (FLVK); settings: FLVK Ki, Table 1
[3] = Determination of inhibitor concentration in mouse plasma after intraperitoneal and oral dosing; assay type: in vivo; settings: for concentration at 7 h: female
Procedure, shortened: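 Plasma levels quantified by HPLC or LC-MS using a standard curve prepared in mouse plasma, following ethyl acetate extraction with internal standard and sodium hydroxide. Sampling at 0.5, 1, 4 h (ocular bleed) and 7 h (cardiac puncture) after oral or intraperitoneal dosing.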

[4] = Human liver microsome (HLM) assay; assay type: in vitro ADME; settings: human liver microsomes, 5 μM test compound
Procedure, shortened: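 LC-MS quantified test compound remaining after 0 and 2 h incubation with human liver microsomes. Triplicate samples, clarified by 10 min centrifugation at 14000 g.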

CDK2/Cyclin A = CDK2/Cyclin A (Homo sapiens, UniProt P24941); experiment: CDK2/Cyclin A assay ([32P]ATP, Rb fragment); assay type: biochemical; settings: Table 2
human FGF-R1 = human FGF-R1 (Homo sapiens, UniProt P11362, C488A/C584S/L457V); experiment: FGF-R spectrophotometric assay
CDK4/Cyclin D3 complex = CDK4/Cyclin D3 complex (Homo sapiens, UniProt P11802); experiment: CDK4/Cyclin D assay ([32P]ATP, Rb fragment)
[5] = system: human umbilical vein endothelial cells (HUVEC); experiment: HUVEC proliferation assay (VEGF-stimulated, MTT); assay type: cell-based; settings: Homo sapiens, HUVEC, + albumin; read-out: HUVEC + albumin IC50
[6] = PO, 50 mg/kg, vehicle PEG400:H2O pH 2.3 60:40
[7] = IP, 25 mg/kg, vehicle PEG400:H2O pH 2.3 60:40
[8] = PO, 25 mg/kg, vehicle PEG400:H2O pH 2.3 30:70
[9] = PO, 25 mg/kg, vehicle PEG400:H2O pH 2.3 30:70, read-out: Cmin (7 hr conc.)
[10] = IP, 25 mg/kg, vehicle PEG400:H2O pH 2.3 30:70
[11] = PO, 50 mg/kg, vehicle PEG400:H2O pH 2.3 30:70
[12] = IP, 25 mg/kg, vehicle PEG400:H2O pH 2.3 30:70, read-out: Cmin (7 hr conc.)

Sequence of human FGF-R1 (P11362 456-766 L457V/C488A/C584S): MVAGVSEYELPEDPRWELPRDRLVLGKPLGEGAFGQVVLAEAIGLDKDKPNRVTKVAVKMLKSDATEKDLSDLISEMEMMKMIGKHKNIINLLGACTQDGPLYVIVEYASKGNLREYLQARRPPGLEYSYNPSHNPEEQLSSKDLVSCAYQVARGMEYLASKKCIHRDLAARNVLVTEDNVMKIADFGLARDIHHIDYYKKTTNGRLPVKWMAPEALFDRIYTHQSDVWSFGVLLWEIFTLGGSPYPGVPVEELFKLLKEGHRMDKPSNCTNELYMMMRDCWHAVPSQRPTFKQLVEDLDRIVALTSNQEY
Sequence of unphosphorylated VEGF-R2Δ50 (FLVK) (P35968 with tags, fused parts or gaps DEL940-989/E990V limits assumed): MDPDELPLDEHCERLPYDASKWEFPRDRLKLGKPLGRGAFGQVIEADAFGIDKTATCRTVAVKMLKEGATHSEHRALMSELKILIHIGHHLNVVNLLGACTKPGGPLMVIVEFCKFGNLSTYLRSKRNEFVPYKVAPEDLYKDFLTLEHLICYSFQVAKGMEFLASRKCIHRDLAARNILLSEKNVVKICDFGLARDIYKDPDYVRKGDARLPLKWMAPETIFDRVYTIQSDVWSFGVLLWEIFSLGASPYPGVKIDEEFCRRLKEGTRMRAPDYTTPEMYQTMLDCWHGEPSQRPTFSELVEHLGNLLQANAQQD
Sequence of phosphorylated VEGF-R2Δ50 (FLVK-P) (P35968 with tags, fused parts or gaps DEL940-989/E990V limits assumed): as above
Sequence of CDK4/Cyclin D3 complex (P11802 whole entry, the tested form may be a part): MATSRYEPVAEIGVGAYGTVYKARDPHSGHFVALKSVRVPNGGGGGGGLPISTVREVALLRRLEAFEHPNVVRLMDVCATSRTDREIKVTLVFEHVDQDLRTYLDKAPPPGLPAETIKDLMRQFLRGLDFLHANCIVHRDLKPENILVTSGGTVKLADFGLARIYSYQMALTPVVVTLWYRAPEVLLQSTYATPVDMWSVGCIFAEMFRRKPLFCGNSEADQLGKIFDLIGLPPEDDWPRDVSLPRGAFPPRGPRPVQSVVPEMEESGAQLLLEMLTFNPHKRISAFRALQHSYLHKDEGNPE
Sequence of CDK4/Cyclin D3 complex (P30281 whole entry partner, the tested form may be a part): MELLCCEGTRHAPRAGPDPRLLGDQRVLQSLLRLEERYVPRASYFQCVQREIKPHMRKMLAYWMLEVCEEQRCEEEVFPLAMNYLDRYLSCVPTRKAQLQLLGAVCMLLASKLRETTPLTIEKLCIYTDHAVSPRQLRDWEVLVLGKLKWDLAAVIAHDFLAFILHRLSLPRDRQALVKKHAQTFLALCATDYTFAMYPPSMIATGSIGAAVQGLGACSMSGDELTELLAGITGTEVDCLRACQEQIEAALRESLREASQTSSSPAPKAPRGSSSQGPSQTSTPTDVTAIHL

## Cc1cccc(C(=O)Nc2cccc(Oc3ccc4c(-c5cc6ccccc6[nH]5)n[nH]c4c3)c2)c1 [Example 6(b)]
[1]
  Ki: 0.15 nM

## C(=C\c1n[nH]c2cc(Sc3ccccc3)ccc12)/c1ccccc1 [Example 8(c)]
Human CHK1 (FL-CHK1)
  Ki: > 10000 nM
[2]
  Ki: 2.6 nM
[1]
  Ki: 16 nM

## CN(c1cccc(N)c1)c1ccc2c(/C=C/c3ccc4c(c3)OCO4)n[nH]c2c1 [Example 15, N-[3-(2-Benzo[1,3]dioxol-5-yl-vinyl)-1H-indazol-6-yl]-N-methyl-benzene-1,3-diamine]
[1]
  Ki: 15 nM

## CN(C)c1cccc(C(=O)Nc2cccc(N(C)c3ccc4c(/C=C/c5ccc6c(c5)OCO6)n[nH]c4c3)c2)c1 [Example 16(c), N-(3-{[3-(2-Benzo[1,3]dioxol-5-yl-vinyl)-1H-indazol-6-yl]-methyl-amino}-phenyl)-3-dimethylamino-benzamide]
[1]
  Ki: 1.1 nM

## CN(c1cccc(NC(=O)c2ccc(O)c(C(C)(C)C)c2)c1)c1ccc2c(/C=C/c3ccc4c(c3)OCO4)n[nH]c2c1 [Example 16(f)]
[1]
  Ki: 2.8 nM

## CC(=O)Nc1cccc(C(=O)c2ccc3c(/C=C/c4ccccc4)n[nH]c3c2)c1 [Example 19(a), N-[3-(3-Styryl-1H-indazole-6-carbonyl)-phenyl]-acetamide]
[2]
  Ki: 13.8 nM
[1]
  Ki: 6.8 nM

## O=C(Nc1cccc(C(=O)c2ccc3c(/C=C/c4ccccc4)n[nH]c3c2)c1)c1ccccc1 [Example 19(b), N-[3-(3-Styryl-1H-indazole-6-carbonyl)-phenyl]-benzamide]
[3]; [6]
  plasma half-life (T1/2): ∞
[2]
  Ki: 0.49 nM
[1]
  Ki: 6.6 nM

## O=C(Nc1cccc(C(=O)c2ccc3c(/C=C/c4ccccc4)n[nH]c3c2)c1)OCc1ccccc1 [Example 19(c)]
[1]
  Ki: 5.9 nM

## Cc1cncc(C(=O)Nc2cccc(C(=O)c3ccc4c(/C=C/c5ccccc5)n[nH]c4c3)c2)c1 [Example 19(e), 6-[3-(5-Methylpyridin-3-ylcarboxamido)benzoyl]-3-E-styryl-1H-indazole]
[1]
  Ki: 20 nM

## CC(C)C(=O)Nc1cccc(C(=O)c2ccc3c(/C=C/c4ccccc4)n[nH]c3c2)c1 [Example 19(h), 6-[3-(2-Methylpropionamido)benzoyl]-3-E-styryl-1H-indazole]
[1]
  Ki: 5.9 nM

## O=C(Nc1cccc(Sc2ccc3c(/C=C/c4ccccc4)n[nH]c3c2)c1)c1ccccc1 [Example 20(b), 6(3-(Benzoylamido)-phenylsulfanyl)-3-styryl-1H-indazole]
[2]
  Ki: 1.6 nM
[1]
  Ki: 8 nM

## C=C(c1cccc(NC(=O)c2ncc(C)s2)c1)c1ccc2c(/C=C/c3ccccc3)n[nH]c2c1 [Example 22(a), 6-(1-(3-(5-Methyl-thiaxole-2-carboxoylamido)phenyl)-vinyl)-3-styryl-1H-indazole]
[2]
  Ki: 0.22 nM
[1]
  Ki: 0.2 nM

## C=C(c1cccc(NC(=O)c2ccccc2)c1)c1ccc2c(/C=C/c3ccccc3)n[nH]c2c1 [Example 22(b), 6-(1-(3-(Benzoylamido)phenyl)-vinyl)-3-styryl-1H-indazole]
[2]
  Ki: 0.63 nM
[1]
  Ki: 1.2 nM

## C=C(c1cccc(NC(C)=O)c1)c1ccc2c(/C=C/c3ccccc3)n[nH]c2c1 [Example 23, 6-(1-(3-Acetamido-phenyl)-vinyl)-3-styryl-1H-indazole]
[4]
  % remain (HLM, 2 h): 74%
[2]
  Ki: 1.6 nM
[1]
  Ki: 2.1 nM

## CSc1cc(O)ccc1-c1ccc2c(-c3nc4ccccc4[nH]3)n[nH]c2c1 [Example 24(k), 3-1H-Benzoimidazol-2-yl-6-(2-methylsulfanyl-4-hydroxyphenyl)-1H-indazole]
CDK2/Cyclin A
  Ki: 56 nM
Human FGF-R1
  Ki: 160 nM
CDK4/Cyclin D3 complex
  Ki: 7.2 nM

## CC(=O)N1CCC(C(=O)Nc2cccc(Oc3ccc4c(/C=C/c5ccc(Cl)cc5)n[nH]c4c3)c2)CC1 [Example 30(b), 6-[3-(1-Acetylpiperidin-4-ylcarboxamido)phenoxy]-3-E-[2-(4-chlorophenyl)ethenyl]-1H-indazole]
[1]
  Ki: 2.2 nM

## O=C(Nc1cccc(Cl)c1)c1ccccc1Sc1ccc2c(/C=C/c3ccccn3)n[nH]c2c1 [Example 33(d), 6-[2-(3-Chlorophenylcarbamoyl)phenylsulfanyl]-3-E-[2-(pyridin-2-yl)ethenyl]-1H-indazole]
[4]
  % remain (HLM, 2 h): 22%
[3]; [7]
  AUClast: 5.08 µg·h/mL
  plasma half-life (T1/2): 1.6 h
[3]; [6]
  AUClast: 4.744 µg·h/mL
  plasma half-life (T1/2): 0.9 h
[3]; IP, 25 mg/kg, vehicle PEG400:H2O pH 2.3 60:40, read-out: Cmin (7 hr conc.)
  concentration at 7 h: 0.113 µg/mL
[3]; PO, 50 mg/kg, vehicle PEG400:H2O pH 2.3 60:40, read-out: Cmin (7 hr conc.)
  concentration at 7 h: 0.008 µg/mL
Human FGF-R1
  Ki: 24 nM
[2]
  Ki: 0.14 nM

## O=C(NNc1ccccn1)c1ccccc1Sc1ccc2c(/C=C/c3ccccn3)n[nH]c2c1 [Example 35(n)]
[4]
  % remain (HLM, 2 h): 47%
[3]; [8]
  AUClast: 4.818 µg·h/mL
  Cmax: 3.545 µg/mL
  plasma half-life (T1/2): 1.4 h
[3]; [9]
  concentration at 7 h: 0.055 µg/mL
Human FGF-R1
  Ki: 92 nM
[2]
  Ki: 0.83 nM

## CONC(=O)c1ccccc1Sc1ccc2c(/C=C/c3ccccn3)n[nH]c2c1 [Example 35(r), 6-[2-(Methoxycarbamoyl)phenylsulfanyl]-3-E-[2-(pyridin-2-yl)ethenyl]-1H-indazole]
[4]
  % remain (HLM, 2 h): 51%
[3]; [8]
  AUClast: 4.261 µg·h/mL
  plasma half-life (T1/2): 1.3 h
[3]; [9]
  concentration at 7 h: 0.067 µg/mL
Human FGF-R1
  Ki: 20 nM
[2]
  Ki: 0.11 nM

## Nc1cccc(C(=O)c2ccc3c(/C=C/c4ccccn4)n[nH]c3c2)c1 [Example 40(a), 6(3-Amino-benzoyl)-3-E-[2-(pyridin-2-yl)ethenyl]-1H-indazole]
[1]
  Ki: 17.9 nM

## CCn1nc(C)cc1C(=O)Nc1cccc(C(=O)c2ccc3c(/C=C/c4ccccn4)n[nH]c3c2)c1 [Example 41(a), 6-[3-((1-Ethyl-3-methyl-1H-pyrazol-5-yl)carboxamido)benzoyl]-3-E-[2-(pyridin-2-yl)ethenyl]-1H-indazole]
[4]
  % remain (HLM, 2 h): 96%
[3]; [10]
  AUClast: 92.823 µg·h/mL
  Cmax: 32.202 µg/mL
  plasma half-life (T1/2): 2.9 h
[3]; [11]
  AUClast: 48.998 µg·h/mL
  Cmax: 18.433 µg/mL
  plasma half-life (T1/2): 3.4 h
[3]; [12]
  concentration at 7 h: 3.86 µg/mL
[3]; PO, 50 mg/kg, vehicle PEG400:H2O pH 2.3 30:70, read-out: Cmin (7 hr conc.)
  concentration at 7 h: 2.46 µg/mL
Human FGF-R1
  Ki: 20 nM
[2]
  Ki: 0.03 nM

## Cc1cc(C(=O)Nc2cccc(C(=O)c3ccc4c(/C=C/c5ccccn5)n[nH]c4c3)c2)n(C)n1 [Example 41(p), 6-[3-((1,3-Dimethyl-1H-pyrazol-5-yl)carboxamido)benzoyl]-3-E-[2-(pyridin-2-yl)ethenyl]-1H-indazole]
[4]
  % remain (HLM, 2 h): 62%
[3]; [10]
  AUClast: 4.15 µg·h/mL
  plasma half-life (T1/2): 5.5 h
[3]; [12]
  concentration at 7 h: 0.38 µg/mL
Human FGF-R1
  Ki: 90 nM
[2]
  Ki: 0.06 nM

## O=CNc1ccccc1/C=C/c1n[nH]c2cc(C(=O)c3cccc(NC(=O)c4ccccc4)c3)ccc12 [Example 43, 6-(3-Benzamidobenzoyl)-3-E-[2-(2-formamidophenyl)ethenyl]-1H-indazole]
[5]
  IC50: 24 nM
[1]; read-out: FLVK-P % inhibition
  inhibition at 0.05 µM: 56%

## Nc1cccc(Nc2ccc3c(/C=C/c4ccccc4)n[nH]c3c2)c1 [Example 46]
[1]
  Ki: 3.5 nM
